One block for each compound: values may come before it.
Columns and labels:
Homo sapiens = organism: Homo sapiens; experiment: Selectivity index, ratio of DC50 for VHL/SMARCA2 in human RKO cells to DC50 for VHL/SMARCA4 in human RKO cells; type: cell-based
[1] = Oral bioavailability in NMRI mouse; type: ADME, organism-based; details: in vivo
[2] = target: T1, von Hippel-Lindau disease tumor suppressor/SWI/SNF-related matrix-associated actin-dependent regulator of chromatin subfamily A member 2 (Homo sapiens, UniProt P51531+P40337); experiment: Protac activity at VHL/SMARCA2 in human RKO cells assessed as degradation of SMARCA2; type: cell-based
Target sequence in this assay (P51531 whole entry): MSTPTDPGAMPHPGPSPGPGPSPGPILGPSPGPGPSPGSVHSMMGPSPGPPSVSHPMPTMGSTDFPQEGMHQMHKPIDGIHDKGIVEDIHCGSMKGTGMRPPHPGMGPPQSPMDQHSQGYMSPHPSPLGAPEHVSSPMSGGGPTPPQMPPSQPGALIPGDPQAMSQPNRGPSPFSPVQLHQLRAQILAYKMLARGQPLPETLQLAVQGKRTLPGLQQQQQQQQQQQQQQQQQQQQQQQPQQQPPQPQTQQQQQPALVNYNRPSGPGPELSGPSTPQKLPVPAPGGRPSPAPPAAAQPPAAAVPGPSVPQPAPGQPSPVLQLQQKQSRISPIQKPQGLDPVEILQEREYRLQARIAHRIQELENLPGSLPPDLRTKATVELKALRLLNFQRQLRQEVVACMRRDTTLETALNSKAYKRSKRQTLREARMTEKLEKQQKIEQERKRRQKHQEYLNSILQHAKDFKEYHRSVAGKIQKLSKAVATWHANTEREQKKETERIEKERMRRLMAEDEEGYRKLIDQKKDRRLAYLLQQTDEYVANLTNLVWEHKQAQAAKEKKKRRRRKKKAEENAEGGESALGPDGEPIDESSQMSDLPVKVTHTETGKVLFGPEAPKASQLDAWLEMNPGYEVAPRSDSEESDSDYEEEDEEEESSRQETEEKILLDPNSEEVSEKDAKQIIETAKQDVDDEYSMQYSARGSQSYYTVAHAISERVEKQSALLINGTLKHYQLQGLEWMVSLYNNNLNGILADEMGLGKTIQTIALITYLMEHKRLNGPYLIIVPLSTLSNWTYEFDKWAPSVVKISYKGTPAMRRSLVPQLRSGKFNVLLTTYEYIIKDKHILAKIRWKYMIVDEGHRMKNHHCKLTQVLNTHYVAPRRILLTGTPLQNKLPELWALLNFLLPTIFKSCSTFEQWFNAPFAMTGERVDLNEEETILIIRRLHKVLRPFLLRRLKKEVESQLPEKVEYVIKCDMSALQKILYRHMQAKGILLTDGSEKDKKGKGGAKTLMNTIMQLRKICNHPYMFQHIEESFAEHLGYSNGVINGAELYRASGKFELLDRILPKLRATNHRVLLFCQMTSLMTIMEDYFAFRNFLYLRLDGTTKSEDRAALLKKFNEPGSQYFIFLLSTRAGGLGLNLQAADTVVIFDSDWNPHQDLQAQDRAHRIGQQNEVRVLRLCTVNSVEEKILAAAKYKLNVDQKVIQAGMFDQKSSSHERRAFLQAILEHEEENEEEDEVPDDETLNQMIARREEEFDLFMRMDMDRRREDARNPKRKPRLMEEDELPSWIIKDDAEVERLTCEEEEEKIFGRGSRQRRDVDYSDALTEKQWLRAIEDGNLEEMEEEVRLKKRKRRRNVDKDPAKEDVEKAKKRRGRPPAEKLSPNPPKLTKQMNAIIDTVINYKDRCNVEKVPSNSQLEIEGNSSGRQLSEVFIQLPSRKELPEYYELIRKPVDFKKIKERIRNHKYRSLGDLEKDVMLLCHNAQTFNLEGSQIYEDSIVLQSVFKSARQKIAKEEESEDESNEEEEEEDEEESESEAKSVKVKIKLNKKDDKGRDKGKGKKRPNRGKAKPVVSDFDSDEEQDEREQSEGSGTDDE
Target sequence in this assay (P40337 whole entry): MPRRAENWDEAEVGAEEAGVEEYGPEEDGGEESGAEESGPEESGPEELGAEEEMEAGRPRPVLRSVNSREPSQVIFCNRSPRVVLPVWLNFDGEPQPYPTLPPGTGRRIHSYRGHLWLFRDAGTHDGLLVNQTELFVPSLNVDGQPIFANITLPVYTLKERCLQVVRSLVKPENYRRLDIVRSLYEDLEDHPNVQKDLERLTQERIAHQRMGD

[3] = target: von Hippel-Lindau disease tumor suppressor/SWI/SNF-related matrix-associated actin-dependent regulator of chromatin subfamily A member 4 (Homo sapiens, UniProt P51532+P40337); experiment: Protac activity at VHL/SMARCA4 in human RKO cells assessed as degradation of SMARCA4; type: cell-based
Sequence of von Hippel-Lindau disease tumor suppressor/SWI/SNF-related matrix-associated actin-dependent regulator of chromatin subfamily A member 4 (P51532 whole entry): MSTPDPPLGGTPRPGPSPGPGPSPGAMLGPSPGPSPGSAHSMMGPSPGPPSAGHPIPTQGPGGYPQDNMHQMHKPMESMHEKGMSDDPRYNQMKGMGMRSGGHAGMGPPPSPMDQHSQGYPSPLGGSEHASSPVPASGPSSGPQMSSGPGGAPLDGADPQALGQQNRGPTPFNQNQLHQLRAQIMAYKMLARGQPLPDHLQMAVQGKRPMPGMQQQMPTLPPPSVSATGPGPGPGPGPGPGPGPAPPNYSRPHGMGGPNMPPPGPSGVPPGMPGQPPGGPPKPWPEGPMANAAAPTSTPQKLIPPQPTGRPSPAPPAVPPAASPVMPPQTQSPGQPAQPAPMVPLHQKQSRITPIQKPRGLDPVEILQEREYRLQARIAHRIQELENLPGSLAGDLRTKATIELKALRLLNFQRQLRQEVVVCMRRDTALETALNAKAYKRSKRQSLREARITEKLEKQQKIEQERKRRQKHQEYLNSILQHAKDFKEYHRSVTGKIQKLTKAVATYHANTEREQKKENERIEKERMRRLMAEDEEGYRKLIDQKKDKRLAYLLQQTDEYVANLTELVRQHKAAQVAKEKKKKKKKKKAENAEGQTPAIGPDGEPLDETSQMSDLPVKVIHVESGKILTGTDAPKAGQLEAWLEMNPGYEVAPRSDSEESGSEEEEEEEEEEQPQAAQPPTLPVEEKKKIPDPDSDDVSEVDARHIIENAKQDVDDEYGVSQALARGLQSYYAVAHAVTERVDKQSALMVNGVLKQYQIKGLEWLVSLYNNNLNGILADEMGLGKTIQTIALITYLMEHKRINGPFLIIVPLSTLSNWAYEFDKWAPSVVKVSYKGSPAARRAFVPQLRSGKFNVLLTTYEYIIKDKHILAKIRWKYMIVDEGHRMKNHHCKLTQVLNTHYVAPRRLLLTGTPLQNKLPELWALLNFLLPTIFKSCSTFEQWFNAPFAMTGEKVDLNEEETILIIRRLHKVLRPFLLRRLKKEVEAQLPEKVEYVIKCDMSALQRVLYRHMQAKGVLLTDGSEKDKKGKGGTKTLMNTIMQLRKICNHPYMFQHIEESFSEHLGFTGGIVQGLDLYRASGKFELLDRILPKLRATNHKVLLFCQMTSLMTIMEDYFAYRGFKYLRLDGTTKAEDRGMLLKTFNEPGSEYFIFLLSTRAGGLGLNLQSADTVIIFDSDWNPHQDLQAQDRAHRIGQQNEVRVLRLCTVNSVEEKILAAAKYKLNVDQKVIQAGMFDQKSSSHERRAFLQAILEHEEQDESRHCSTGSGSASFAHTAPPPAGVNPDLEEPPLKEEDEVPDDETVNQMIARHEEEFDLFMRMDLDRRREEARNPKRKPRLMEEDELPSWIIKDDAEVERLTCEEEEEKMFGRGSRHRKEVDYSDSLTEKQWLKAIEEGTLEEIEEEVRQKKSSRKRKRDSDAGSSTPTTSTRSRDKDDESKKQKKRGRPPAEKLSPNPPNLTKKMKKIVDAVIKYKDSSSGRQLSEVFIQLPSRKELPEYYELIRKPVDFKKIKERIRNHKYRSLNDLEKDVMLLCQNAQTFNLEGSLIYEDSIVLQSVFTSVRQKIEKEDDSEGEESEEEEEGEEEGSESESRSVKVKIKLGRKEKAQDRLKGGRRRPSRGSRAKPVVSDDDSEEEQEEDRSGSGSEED
Sequence of von Hippel-Lindau disease tumor suppressor/SWI/SNF-related matrix-associated actin-dependent regulator of chromatin subfamily A member 4 (P40337 whole entry): as the sequence (P40337 whole entry) above

[4] = target: T1, von Hippel-Lindau disease tumor suppressor/SWI/SNF-related matrix-associated actin-dependent regulator of chromatin subfamily A member 2; experiment: Protac activity at VHL/SMARCA2 (unknown origin) assessed as degradation of SMARCA2 relative to control; type: protein assay
Target sequence in this assay (P40337 whole entry, looked up): as the sequence (P40337 whole entry) above
Target sequence in this assay (P51531 whole entry, looked up): as the sequence (P51531 whole entry) above

[5] = target: T1, von Hippel-Lindau disease tumor suppressor/SWI/SNF-related matrix-associated actin-dependent regulator of chromatin subfamily A member 2; experiment: Protac activity at VHL/SMARCA2 (unknown origin) assessed as degradation of SMARCA2; type: protein assay
Target sequence in this assay (P51531 whole entry): as above
Target sequence in this assay (P40337 whole entry): as the sequence (P40337 whole entry) above

[6] = target: SWI/SNF-related matrix-associated actin-dependent regulator of chromatin subfamily A member 2 (Homo sapiens, UniProt P51531); experiment: Inhibition of SMARCA2 (unknown origin) assessed as dissociation constant
Sequence of SWI/SNF-related matrix-associated actin-dependent regulator of chromatin subfamily A member 2 (P51531 whole entry): as the sequence (P51531 whole entry) above

bioavailability [1]: 22% | DC50 [2]: 1 nM | DC50 [3]: 32 nM
SMILES: Cc1ncsc1-c1ccc(CNC(=O)[C@@H]2C[C@@H](O)CN2C(=O)[C@@H](NC(=O)C2(F)CC2)C(C)(C)C)c(CC[C@H](C)CCN2CCC(c3ccc4c(c3)n(C3CCCC3)c3nc(=O)c5c(Br)cccc5n43)CC2)c1
Selectivity Index (Homo sapiens): > 30

Emax [4]: 46% | DC50 [5]: 78 nM
SMILES: Cc1ncsc1-c1ccc(CNC(=O)[C@@H]2C[C@@H](O)CN2C(=O)[C@@H](NC(=O)C2(F)CC2)C(C)(C)C)c(OCCCN2CCC(c3ccc4c(c3)n(C3CCCC3)c3nc(=O)c5c(Br)cccc5n43)CC2)c1

Kd [6]: 46 nM
SMILES: O=c1nc2n(C3CCCC3)c3cc(C4CCNCC4)ccc3n2c2cccc(Br)c12
